Measured values as given in PubChem BioAssay (NCI).
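Test compounds were applied to cells in 96-well plates for 48 hours at 5 doses. TGI: concentration producing complete growth inhibition.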

Experiments:
Test in all cases: NCI tumour cell line growth inhibition, 48 h
KM12 colon = test system: KM12 colon
LOX IMVI melanoma = test system: LOX IMVI melanoma
MCF7 breast = test system: MCF7 breast
NCI-H226 lung = test system: NCI-H226 lung
OVCAR-8 ovarian = test system: OVCAR-8 ovarian
PC-3 prostate = test system: PC-3 prostate
SK-MEL-5 melanoma = test system: SK-MEL-5 melanoma
U251 CNS = test system: U251 CNS
RXF 393 renal = test system: RXF 393 renal

| Compound | TGI (KM12 colon) | TGI (LOX IMVI melanoma) | TGI (MCF7 breast) | TGI (NCI-H226 lung) | TGI (OVCAR-8 ovarian) | TGI (PC-3 prostate) | TGI (SK-MEL-5 melanoma) | TGI (U251 CNS) | TGI (RXF 393 renal) |
| --- | --- | --- | --- | --- | --- | --- | --- | --- | --- |
| Cc1ccsc1C(=S)Nc1ccc(Cl)c(C(=O)OC(C(C)C)C(C)C)c1 | > 100 µM | 55.3 µM | > 100 µM | > 100 µM | > 100 µM | 61.8 µM | 33 µM | 97.1 µM |  |
| COP(=O)(CC(=O)C1OC(OCc2ccccc2)C(OCc2ccccc2)C(OCc2ccccc2)C1OCc1ccccc1)OC (centres undefined) | 37.6 µM | 32.3 µM | 37.4 µM | 54 µM | > 100 µM | > 100 µM | 16.8 µM | > 100 µM | 19.4 µM |
| COc1cc(OC)c(C2c3cc4c(cc3OC(N3CCOCC3)C2C)OCO4)c(OC)c1 (centres undefined) | > 100 µM | > 100 µM | > 100 µM |  | > 100 µM | > 100 µM | > 100 µM |  |  |
| COc1cc2c(cc1OCCCOc1cc3c(cc1OC)C(=O)N1CCC[C@H]1CN3)N=C[C@@H]1CCCN1C2=O | 0.327 µM | 10.8 µM |  | 0.398 µM | 1.28 µM | 8.4 µM |  |  | 2.55 µM |
| CN1c2ccccc2C(=O)NC12CCN(CC1COc3ccccc3O1)CC2 (centres undefined) | > 100 µM | > 100 µM | > 100 µM | 87.4 µM | > 100 µM |  | 41.5 µM | > 100 µM | > 100 µM |
| FC(F)=C(c1ccc(-c2ccc(Cl)cc2)cc1)C(F)(F)F | 36.7 µM |  |  |  | 57.9 µM | 32.5 µM | 32.9 µM | 31.4 µM | 40.9 µM |
| CCN(C(=O)N[C@H](C(=O)N[C@@H](C)C(=O)OC)C(C)C)c1ccccc1 | > 100 µM | > 100 µM | > 100 µM | > 100 µM | 63.2 µM | > 100 µM | > 100 µM | 86.6 µM | > 100 µM |
| Cc1ccc2c(c1)C(=O)/C(=C\c1ccc(Cl)cc1)CCS2(=O)=O | 7.71 µM | 6.43 µM | 14 µM | 14.2 µM | 5.39 µM | 39.1 µM | 7.8 µM | 9.09 µM |  |
| CCOP(=O)(OCC)c1cc(-c2ccccc2)ccc1N | > 100 µM |  | > 100 µM |  | > 100 µM | > 100 µM | > 100 µM | > 100 µM | > 100 µM |
| O=S1(=O)c2ccccc2NC(=S)N1c1ccccc1 | > 100 µM | > 66.1 µM | > 100 µM | > 100 µM | > 100 µM | > 100 µM | > 100 µM | > 100 µM | > 100 µM |
| Cc1ccc(C(=O)c2[nH]c(Nc3cc(C)ccn3)c(C(=S)Nc3ccccc3)c2N)cc1 | > 100 µM | > 100 µM | > 100 µM | > 100 µM | > 100 µM |  | > 100 µM | > 100 µM | > 100 µM |
| COc1ccc(N2C(=O)C3c4[nH]c5ccccc5c4C4C(C)CCCC4C3C2=O)cc1 (centres undefined) | > 100 µM | > 100 µM | > 100 µM | > 100 µM | > 100 µM | > 100 µM | > 100 µM | > 100 µM | > 72.6 µM |
| Cc1cn(C2CC(OC(c3ccccc3)(c3ccccc3)c3ccccc3)C(COC(c3ccccc3)(c3ccccc3)c3ccccc3)O2)c(=O)[nH]c1=O (centres undefined) | > 100 µM | > 100 µM | > 100 µM | 88.7 µM | > 100 µM | > 100 µM | > 100 µM |  | > 100 µM |
| CCOC(=O)c1ccc(C(=O)/C(C(=O)OC(C)(C)C)=C2\CCCN2C)n1C | > 100 µM | > 100 µM | > 100 µM | > 100 µM | > 100 µM | > 100 µM | 52.9 µM | > 100 µM | > 100 µM |
| CC1=NC(C)(C)N(O)C1(C)C | > 100 µM | > 100 µM | > 100 µM | > 100 µM | > 100 µM | > 100 µM | > 100 µM | > 100 µM | > 100 µM |
| COC(=O)C(CCSC)NC(=O)CSc1nnc(COc2ccc(Cl)cc2)n1-c1ccccc1 (centres undefined) | 34.4 µM | 32.4 µM | 41.8 µM | 43.3 µM | 36.3 µM | 38.4 µM | 32.7 µM | 30.9 µM | 35.4 µM |
| Cc1ccc(-n2cc(-c3ccc(Cl)cc3)c3c2N=CN2NC(c4ccco4)=NC32)cc1 (centres undefined) |  | > 100 µM | > 100 µM | 68.6 µM | 27.5 µM | > 100 µM | > 100 µM | 20.8 µM | 30.7 µM |
| O=CN(O)CC(=O)O | > 100 µM | > 100 µM | > 100 µM | > 100 µM | > 100 µM | > 100 µM | > 100 µM | > 100 µM | > 100 µM |
| COc1cc(/C=C/C(=O)O)ccc1OS(=O)(=O)O | > 100 µM | > 100 µM | > 100 µM | > 100 µM | > 100 µM | > 100 µM | > 100 µM | > 100 µM | > 100 µM |
| CCOC(=O)c1c(NC(=S)Nc2ccc(C)cc2)sc2c1CCN(C)C2 | > 100 µM |  | > 100 µM | > 100 µM | > 100 µM | > 100 µM | > 100 µM |  | > 100 µM |
| COC(=O)c1sc2ncc3c(c2c1N)CC(C)CC3 (centres undefined) | > 100 µM | > 100 µM | > 100 µM | > 100 µM |  | > 100 µM | > 100 µM | > 100 µM | > 100 µM |
| COC(=O)/C=C\S/C(=C(/c1ccccc1)n1ccc(C(=O)OC)n1)c1ccccc1 | > 100 µM | > 100 µM | 28.7 µM | > 100 µM | > 100 µM | 49.7 µM | > 100 µM | 38.2 µM | 39.8 µM |
| COC(=O)[C@H]1C=C[C@H](OC2OC(COC(C)=O)C(OC(C)=O)C(OC(C)=O)C2OC(C)=O)n2c(=O)n(-c3ccccc3)c(=O)n21 (some centres undefined) | 25.1 µM |  |  | 20.5 µM | 26.4 µM | 22.6 µM | > 22.4 µM | 27.9 µM | 3.73 µM |
| COc1cc(/C=C/c2cc(=O)cc(/C=C/c3ccc(O)c(OC)c3)o2)ccc1O | > 100 µM | > 100 µM | > 100 µM | 98.3 µM | > 100 µM | > 100 µM | > 100 µM | > 100 µM | > 55.2 µM |
